As a reminder, the Emax is the greatest response seen or fitted, relative to the assay's reference. As usually defined, the EC50 is the concentration needed to bring the measured effect to its halfway point. What is called melting point is the temperature of the solid-liquid transition.

The source of these data is patent US20220315567A1 (priority 2016, published 2022).

Where two headings read alike, the source gives them in different places.

For data set [1] the following is noted: patients following bunionectomy; cited from earlier work.
For data set [2] the following is noted: healthy volunteers; cited from earlier work.
Data set [3] deals with T1, human OPRM1 (μ, MOR) (Homo sapiens, UniProt P35372).
T1 construct: host or cells: CHO-K1
T1 sequence (P35372 whole entry): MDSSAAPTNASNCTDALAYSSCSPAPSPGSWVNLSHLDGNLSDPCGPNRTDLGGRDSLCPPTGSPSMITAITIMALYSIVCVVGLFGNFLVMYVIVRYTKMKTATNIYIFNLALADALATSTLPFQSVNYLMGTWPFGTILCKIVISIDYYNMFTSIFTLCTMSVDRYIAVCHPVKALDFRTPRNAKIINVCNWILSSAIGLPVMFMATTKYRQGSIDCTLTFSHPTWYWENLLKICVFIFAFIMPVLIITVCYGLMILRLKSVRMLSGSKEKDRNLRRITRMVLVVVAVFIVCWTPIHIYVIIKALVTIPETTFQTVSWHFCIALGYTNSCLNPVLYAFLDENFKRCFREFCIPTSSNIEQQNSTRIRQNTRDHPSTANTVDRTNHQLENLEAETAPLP
The format is cell-based. The conditions noted are these: for ΔRA of compound: relative activity from EC50 and Emax of β-arrestin vs cAMP, lower RA = more G-protein biased. In short, it runs like this: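 Activity measured in cell assays for G-protein signaling and for β-arrestin recruitment. A relative activity (RA) value was derived by comparing the two readouts, taking both EC50 and Emax into account.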

Data set [4] addresses T1, human OPRM1 (μ, MOR). Briefly: cell-based. The conditions noted are these: for Emax: OPRM1, read-out: cAMP Emax; for EC50: PathHunter human OPRM1 Arrestin CHO-K1 cell line, read-out: cAMP EC50. On the procedure: G-protein signaling was measured via second messenger cAMP modulation. Detection of cAMP modulation was accomplished in the PathHunter human OPRM1 (μ, MOR) Arrestin CHO-K1 cell line using the Dynamic2 cAMP Kit from Cisbio.

Data set [5] deals with T1, human OPRM1 (μ, MOR). Briefly: cell-based. The conditions noted are these: for Emax: OPRM1, read-out: β-Arrestin Emax; for EC50: PathHunter human OPRM1 Arrestin CHO-K1 cell line, read-out: β-Arrestin EC50. In short, it runs like this:
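β-Arrestin-2 recruitment was measured in PathHunter CHO-K1 cells expressing ED-tagged human OPRM1 and EA-fused arrestin. Agonist-driven recruitment restores β-galactosidase activity by enzyme fragment complementation, read by chemiluminescence.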

In the case of `COc1ccsc1CNCC[C@@]1(c2ccccn2)CCOC2(CCCC2)C1` [oliceridine, N-[(3-methoxythiophen-2-yl)methyl]-2-[(9R)-9-pyridin-2-yl-6-oxaspiro[4.5]decan-9-yl]ethanamine], the level of analgesia result in data set [1] is listed as “higher level of analgesia”. Besides, the “on-target adverse effects (nausea, decrease in respiratory drive)” value in data set [2] is reported as “decreased on-target adverse effects”.

Regarding `CN(C)C(CNC(=O)N1CCCc2cc(O)ccc21)c1ccsc1` (stereo not shown) [Compound 53], the melting point was 163 °C (dec.). Also, on human OPRM1 (μ, MOR) [3], the “Bias Factor (ΔRA of compound relative to ΔRA of DAMGO) × 10” value is listed as −4.47 and the ΔRA of compound is reported as −1.93. For the same molecule, at human OPRM1 (μ, MOR) [4], the Emax worked out at 120% and the concentration for a half-maximal effect (EC50) was 267 nM. Also, on human OPRM1 (μ, MOR) [5], the Emax worked out at 20.1% and the EC50 is 3790 nM.

As for `CN(C)C1(CNC(=O)N2Cc3ccc(F)cc3C2)CCOCC1` [Compound 61], the melting point lay in the range of 241 to 243 °C. Also, at human OPRM1 (μ, MOR) [3], the “Bias Factor (ΔRA of compound relative to ΔRA of DAMGO) × 10” value is less than −14.83 and the ΔRA of compound is less than −2.96. Further, at human OPRM1 (μ, MOR) [4], the maximal effect (Emax) came out at 104% and the EC50 is 1170 nM. At human OPRM1 (μ, MOR) [5], the Emax came out at 14.5% and the EC50 is more than 100000 nM.

On to `CN(C)C1(CNC(=O)N[C@@H]2CCc3ccccc3C2)CCCCC1` [Compound 55], for which the melting point lay in the range of 192 to 194 °C. On human OPRM1 (μ, MOR) [3], the “Bias Factor (ΔRA of compound relative to ΔRA of DAMGO) × 10” value is listed as less than −14.83 and the ΔRA of compound is reported as less than −2.96. Further, on human OPRM1 (μ, MOR) [4], the Emax was found to be 36.6% and the EC50 amounted to 2850 nM. At human OPRM1 (μ, MOR) [5], the Emax was less than 1% and the EC50 was more than 100000 nM.

Molecule `CN(C)C(CNC(=O)N[C@H]1CCc2ccccc2C1)c1ccsc1` (stereo partly shown) [Compound 67] yielded a melting point of 165 to 167 °C. Further, at human OPRM1 (μ, MOR) [3], the “Bias Factor (ΔRA of compound relative to ΔRA of DAMGO) × 10” value is recorded as less than −14.83 and the ΔRA of compound is less than −2.96. At human OPRM1 (μ, MOR) [4], the “cAMP Emax” value is 50.9% and the EC50 came out at 13 nM. Further, at human OPRM1 (μ, MOR) [5], the “β-Arrestin Emax” value was 2.6% and the EC50 is more than 100000 nM.

`CN(C)[C@H](CCNC(=O)N[C@@H]1CCc2ccccc2C1)c1ccsc1` [Compound 71]: the melting point lay in the range of 112 to 114 °C. Moreover, on human OPRM1 (μ, MOR) [3], the “Bias Factor (ΔRA of compound relative to ΔRA of DAMGO) × 10” value was −3.66 and the ΔRA of compound is reported as −1.85. Further, on human OPRM1 (μ, MOR) [4], the “cAMP Emax” value is 71.2% and the EC50 worked out at 177 nM. Besides, on human OPRM1 (μ, MOR) [5], the “β-Arrestin Emax” value is reported as 10.5% and the EC50 was determined as 1820 nM.
